Results reported in US20220096487A1 (priority 2019, published 2022).
pIC50: −log10 of the molar value. Entries after “also recorded” stand apart in the source; their conditions may differ.

Columns and labels:
[1] = Carcinogenicity studies in rats; settings: two-year study, doses up to 50 mg/kg, highest dose tested
[2] = Multiple-dose pharmacokinetic properties (Table 7); type: in vivo, human; settings: population PK, ART treatment-naive adults, 50 mg dolutegravir once daily
[3] = target: organic anion transporter (OAT)1 (Homo sapiens, UniProt Q4U2R8); test: In vitro inhibition of OAT1; type: in vitro ADME
CYP2B6 = test: In vitro induction of CYP2B6; type: in vitro ADME
[4] = target: organic anion transporter polypeptide (OATP)1B1 (Homo sapiens, UniProt Q9Y6L6); test: In vitro inhibition of OATP1B1; type: in vitro ADME; settings: did not inhibit
[5] = target: bile salt export pump (BSEP) (Homo sapiens, UniProt O95342); test: In vitro inhibition of BSEP; type: in vitro ADME; settings: did not inhibit
[6] = Dolutegravir embryo-fetal development study in pregnant rabbits; type: in vivo, rabbit; settings: oral up to 1,000 mg/kg daily, gestation Days 6 to 18
[7] = Pharmacokinetic properties of the components (Table 6); type: in vivo, human; settings: in vivo
[8] = Excretion into milk of lactating rats; type: in vivo; settings: female, rat, milk / maternal plasma; single oral dose of 50 mg/kg on lactation Day 10; 8 hours postdose; read-out: Milk concentration relative to maternal plasma concentration
UGT2B7 = UGT2B7 (Homo sapiens, UniProt P16662); test: In vitro inhibition of UGT2B7; type: in vitro ADME; settings: did not inhibit
CYP3A4 = test: In vitro induction of CYP3A4; type: in vitro ADME
OAT1 and OAT3 = test: In vivo effect on OAT1 and OAT3 substrates
P-gp = P-gp (Homo sapiens, UniProt P08183); test: In vitro substrate assessment, P-gp; type: in vitro ADME
CYP2C19 = CYP2C19 (Homo sapiens, UniProt P33261); test: In vitro inhibition of CYP2C19; type: in vitro ADME; settings: did not inhibit
[9] = Established and other potentially significant drug interactions for dolutegravir (Table 5); type: in vivo, human
Description: These recommendations are based on either drug interaction trials or predicted interactions due to the expected magnitude of interaction and potential for serious adverse events or loss of efficacy [see Contraindications (4), Clinical Pharmacology (12.3)].

CYP2C8 = CYP2C8 (Homo sapiens, UniProt P10632); test: In vitro inhibition of CYP2C8; type: in vitro ADME; settings: did not inhibit
CYP3A = test: In vitro inhibition of CYP3A; type: in vitro ADME; settings: human, did not inhibit
MRP4 = MRP4 (Homo sapiens, UniProt O15439); test: In vitro inhibition of MRP4; type: in vitro ADME; settings: did not inhibit
BCRP [10] = target: T1, BCRP (Homo sapiens, UniProt Q9UNQ0); test: In vitro inhibition of BCRP; type: in vitro ADME; settings: did not inhibit
T1 sequence (Q9UNQ0 1-655): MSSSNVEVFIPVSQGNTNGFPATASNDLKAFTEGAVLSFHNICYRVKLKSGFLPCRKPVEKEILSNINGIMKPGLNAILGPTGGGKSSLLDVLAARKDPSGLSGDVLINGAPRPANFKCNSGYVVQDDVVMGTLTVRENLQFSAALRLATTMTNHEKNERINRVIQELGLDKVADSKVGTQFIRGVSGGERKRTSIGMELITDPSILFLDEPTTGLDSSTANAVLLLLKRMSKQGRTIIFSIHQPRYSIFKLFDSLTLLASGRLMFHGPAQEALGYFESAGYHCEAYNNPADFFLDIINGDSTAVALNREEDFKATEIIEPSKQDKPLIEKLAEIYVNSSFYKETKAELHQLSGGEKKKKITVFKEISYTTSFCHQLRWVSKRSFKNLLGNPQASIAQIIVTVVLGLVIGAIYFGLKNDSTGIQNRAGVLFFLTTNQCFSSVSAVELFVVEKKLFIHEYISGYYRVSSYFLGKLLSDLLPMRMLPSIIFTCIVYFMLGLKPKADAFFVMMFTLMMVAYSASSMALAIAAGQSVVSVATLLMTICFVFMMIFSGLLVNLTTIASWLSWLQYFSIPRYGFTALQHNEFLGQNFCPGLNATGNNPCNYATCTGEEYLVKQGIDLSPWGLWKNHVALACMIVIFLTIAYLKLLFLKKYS

[11] = Hypersensitivity reactions in Phase 3 clinical trials of dolutegravir; type: in vivo, human; settings: subjects receiving dolutegravir in Phase 3 clinical trials
Description: Discontinue the combination immediately if signs or symptoms of hypersensitivity reactions develop (including, but not limited to, severe rash or rash accompanied by fever, general malaise, fatigue, muscle or joint aches, blisters or peeling of the skin, oral blisters or lesions, conjunctivitis, facial edema, hepatitis, eosinophilia, angioedema, difficulty breathing). Clinical status, including liver aminotransferases, should be monitored and appropriate therapy initiated.

OATP1B3 = OATP1B3 (Homo sapiens, UniProt Q9NPD5); test: In vitro inhibition of OATP1B3; type: in vitro ADME; settings: did not inhibit
UGT1A1 = UGT1A1 (Homo sapiens, UniProt P22309); test: In vitro inhibition of UGT1A1; type: in vitro ADME; settings: did not inhibit
BCRP [12] = target: T1, BCRP; test: In vitro substrate assessment, BCRP; type: in vitro ADME
OAT3 = OAT3 (Homo sapiens, UniProt Q8TCC7); test: In vitro inhibition of OAT3; type: in vitro ADME
[13] = Thorough QT trial in healthy subjects; type: in vivo, human
[14] = Bacterial reverse mutation assay

MRP4, sequence (O15439 whole entry): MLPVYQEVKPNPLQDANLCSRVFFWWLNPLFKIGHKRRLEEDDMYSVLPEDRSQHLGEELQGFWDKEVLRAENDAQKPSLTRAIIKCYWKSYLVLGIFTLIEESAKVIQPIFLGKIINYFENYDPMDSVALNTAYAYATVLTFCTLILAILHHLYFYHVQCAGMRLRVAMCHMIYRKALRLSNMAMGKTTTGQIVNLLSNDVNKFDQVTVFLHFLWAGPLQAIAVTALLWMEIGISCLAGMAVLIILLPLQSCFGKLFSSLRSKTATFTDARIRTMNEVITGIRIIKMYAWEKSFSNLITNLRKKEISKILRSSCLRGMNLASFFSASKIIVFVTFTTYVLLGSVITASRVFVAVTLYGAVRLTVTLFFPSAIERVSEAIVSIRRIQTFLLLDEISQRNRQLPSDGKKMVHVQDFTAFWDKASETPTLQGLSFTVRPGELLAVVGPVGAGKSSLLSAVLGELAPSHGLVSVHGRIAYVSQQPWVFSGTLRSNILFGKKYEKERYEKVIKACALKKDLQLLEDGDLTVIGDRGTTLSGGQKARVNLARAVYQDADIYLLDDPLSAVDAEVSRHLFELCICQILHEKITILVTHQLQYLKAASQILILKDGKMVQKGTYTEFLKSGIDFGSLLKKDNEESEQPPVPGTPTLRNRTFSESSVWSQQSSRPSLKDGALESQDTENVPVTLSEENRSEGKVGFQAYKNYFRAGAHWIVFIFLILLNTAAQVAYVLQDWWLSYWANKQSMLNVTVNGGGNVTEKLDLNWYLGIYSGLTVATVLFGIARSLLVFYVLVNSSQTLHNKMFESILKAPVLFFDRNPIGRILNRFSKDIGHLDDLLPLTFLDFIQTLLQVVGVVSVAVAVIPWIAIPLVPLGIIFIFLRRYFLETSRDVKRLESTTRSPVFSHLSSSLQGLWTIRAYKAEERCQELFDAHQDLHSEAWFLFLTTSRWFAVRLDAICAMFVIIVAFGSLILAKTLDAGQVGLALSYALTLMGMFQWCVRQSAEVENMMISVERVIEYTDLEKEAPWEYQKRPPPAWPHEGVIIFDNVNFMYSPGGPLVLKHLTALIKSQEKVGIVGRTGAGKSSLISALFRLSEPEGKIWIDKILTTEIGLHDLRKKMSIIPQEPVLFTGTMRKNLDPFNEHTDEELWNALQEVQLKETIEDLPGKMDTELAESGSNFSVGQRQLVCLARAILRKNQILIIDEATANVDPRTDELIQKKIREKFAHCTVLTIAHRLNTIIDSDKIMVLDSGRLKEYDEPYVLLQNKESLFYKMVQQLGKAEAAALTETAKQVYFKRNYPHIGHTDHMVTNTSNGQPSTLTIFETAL
P-gp, sequence (P08183 whole entry): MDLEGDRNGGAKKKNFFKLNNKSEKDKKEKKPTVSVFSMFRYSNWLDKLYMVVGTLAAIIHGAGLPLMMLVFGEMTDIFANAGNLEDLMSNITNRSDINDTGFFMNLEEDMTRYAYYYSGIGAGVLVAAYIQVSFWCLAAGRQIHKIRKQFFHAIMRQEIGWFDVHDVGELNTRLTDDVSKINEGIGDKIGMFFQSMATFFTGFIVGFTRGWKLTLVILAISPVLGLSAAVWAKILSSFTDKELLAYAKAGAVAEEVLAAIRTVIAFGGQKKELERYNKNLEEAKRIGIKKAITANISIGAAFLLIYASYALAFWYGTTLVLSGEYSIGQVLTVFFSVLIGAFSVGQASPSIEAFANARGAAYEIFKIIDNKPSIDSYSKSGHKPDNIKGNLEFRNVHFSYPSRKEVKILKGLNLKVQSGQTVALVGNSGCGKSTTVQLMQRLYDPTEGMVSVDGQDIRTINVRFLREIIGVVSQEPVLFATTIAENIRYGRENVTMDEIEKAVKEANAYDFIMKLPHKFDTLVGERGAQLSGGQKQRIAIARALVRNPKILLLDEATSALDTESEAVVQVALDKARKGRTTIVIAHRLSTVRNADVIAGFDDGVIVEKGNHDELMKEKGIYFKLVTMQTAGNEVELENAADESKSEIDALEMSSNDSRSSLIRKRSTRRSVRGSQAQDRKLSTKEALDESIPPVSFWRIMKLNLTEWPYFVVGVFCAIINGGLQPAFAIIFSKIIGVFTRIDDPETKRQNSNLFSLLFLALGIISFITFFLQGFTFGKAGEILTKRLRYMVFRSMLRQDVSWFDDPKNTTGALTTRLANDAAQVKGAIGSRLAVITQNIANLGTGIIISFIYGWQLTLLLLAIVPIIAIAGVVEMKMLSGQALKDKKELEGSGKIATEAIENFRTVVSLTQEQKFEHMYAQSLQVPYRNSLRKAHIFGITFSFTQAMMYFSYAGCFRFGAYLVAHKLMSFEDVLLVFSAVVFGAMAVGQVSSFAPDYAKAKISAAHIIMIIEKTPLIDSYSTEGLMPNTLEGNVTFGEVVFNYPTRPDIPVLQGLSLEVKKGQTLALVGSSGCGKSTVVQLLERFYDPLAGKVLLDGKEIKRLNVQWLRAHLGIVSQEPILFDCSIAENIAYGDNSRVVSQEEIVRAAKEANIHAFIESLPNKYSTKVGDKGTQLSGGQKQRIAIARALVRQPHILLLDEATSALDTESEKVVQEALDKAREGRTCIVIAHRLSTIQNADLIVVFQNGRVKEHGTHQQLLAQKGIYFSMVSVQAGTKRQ
CYP2C8, sequence (P10632 whole entry): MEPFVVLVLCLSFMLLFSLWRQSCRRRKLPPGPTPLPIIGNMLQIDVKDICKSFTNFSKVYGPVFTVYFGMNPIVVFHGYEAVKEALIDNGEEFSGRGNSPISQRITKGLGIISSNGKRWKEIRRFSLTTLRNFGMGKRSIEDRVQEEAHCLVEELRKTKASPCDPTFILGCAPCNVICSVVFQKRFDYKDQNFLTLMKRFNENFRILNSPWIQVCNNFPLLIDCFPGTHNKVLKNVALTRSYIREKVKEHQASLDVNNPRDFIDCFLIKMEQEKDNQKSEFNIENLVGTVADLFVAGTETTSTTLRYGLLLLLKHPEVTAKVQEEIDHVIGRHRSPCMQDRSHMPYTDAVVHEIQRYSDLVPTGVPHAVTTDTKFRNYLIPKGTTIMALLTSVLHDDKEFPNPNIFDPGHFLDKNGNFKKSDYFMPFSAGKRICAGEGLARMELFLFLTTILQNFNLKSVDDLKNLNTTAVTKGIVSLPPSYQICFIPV
OATP1B3, sequence (Q9NPD5 whole entry): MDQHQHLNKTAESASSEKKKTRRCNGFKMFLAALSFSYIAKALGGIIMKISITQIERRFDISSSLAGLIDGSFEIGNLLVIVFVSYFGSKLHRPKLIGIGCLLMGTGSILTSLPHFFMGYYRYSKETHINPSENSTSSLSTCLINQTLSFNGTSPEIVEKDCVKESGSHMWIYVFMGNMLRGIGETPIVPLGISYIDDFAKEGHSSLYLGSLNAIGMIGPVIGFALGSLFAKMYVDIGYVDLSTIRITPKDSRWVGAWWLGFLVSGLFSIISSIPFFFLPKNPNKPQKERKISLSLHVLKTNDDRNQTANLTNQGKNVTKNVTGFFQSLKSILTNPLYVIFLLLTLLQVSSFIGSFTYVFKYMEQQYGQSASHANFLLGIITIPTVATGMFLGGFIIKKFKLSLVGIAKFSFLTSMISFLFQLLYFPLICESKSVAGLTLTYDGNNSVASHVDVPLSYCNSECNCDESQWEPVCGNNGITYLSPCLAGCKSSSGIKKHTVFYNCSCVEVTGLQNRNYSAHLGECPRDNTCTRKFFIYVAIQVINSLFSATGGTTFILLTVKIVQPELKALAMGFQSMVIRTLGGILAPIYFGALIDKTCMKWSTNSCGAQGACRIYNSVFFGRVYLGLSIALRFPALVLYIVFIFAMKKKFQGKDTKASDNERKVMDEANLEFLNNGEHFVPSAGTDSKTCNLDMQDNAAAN
CYP2C19, sequence (P33261 whole entry): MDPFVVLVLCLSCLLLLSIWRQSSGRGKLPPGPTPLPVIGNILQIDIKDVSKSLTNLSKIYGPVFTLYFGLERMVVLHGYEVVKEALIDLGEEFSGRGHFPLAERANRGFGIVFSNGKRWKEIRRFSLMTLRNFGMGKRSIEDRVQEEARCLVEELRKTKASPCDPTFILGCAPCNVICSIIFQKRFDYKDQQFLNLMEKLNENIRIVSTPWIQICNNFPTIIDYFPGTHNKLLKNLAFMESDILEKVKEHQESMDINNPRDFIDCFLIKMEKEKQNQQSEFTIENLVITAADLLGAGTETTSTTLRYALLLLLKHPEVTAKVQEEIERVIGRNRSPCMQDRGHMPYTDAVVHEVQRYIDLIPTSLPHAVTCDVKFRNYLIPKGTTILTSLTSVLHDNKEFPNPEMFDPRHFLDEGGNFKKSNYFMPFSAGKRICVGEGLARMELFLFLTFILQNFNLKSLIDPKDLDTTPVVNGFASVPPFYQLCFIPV
organic anion transporter (OAT)1, sequence (Q4U2R8 whole entry): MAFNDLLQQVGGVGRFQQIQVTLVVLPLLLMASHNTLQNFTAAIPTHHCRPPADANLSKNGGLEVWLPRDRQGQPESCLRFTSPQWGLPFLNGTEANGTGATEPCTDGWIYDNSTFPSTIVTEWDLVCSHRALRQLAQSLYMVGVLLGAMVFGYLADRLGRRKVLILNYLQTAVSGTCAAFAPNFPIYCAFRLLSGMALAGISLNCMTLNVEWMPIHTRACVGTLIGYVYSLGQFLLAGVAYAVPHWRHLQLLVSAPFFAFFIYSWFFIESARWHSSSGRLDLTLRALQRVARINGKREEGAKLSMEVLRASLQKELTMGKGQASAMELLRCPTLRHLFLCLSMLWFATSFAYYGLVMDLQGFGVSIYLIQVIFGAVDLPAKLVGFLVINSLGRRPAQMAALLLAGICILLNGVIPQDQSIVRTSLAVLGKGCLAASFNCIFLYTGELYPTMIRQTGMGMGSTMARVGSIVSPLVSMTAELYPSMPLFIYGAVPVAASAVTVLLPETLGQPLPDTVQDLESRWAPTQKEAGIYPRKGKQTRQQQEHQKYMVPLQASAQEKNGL

Compound: C[C@@H]1CCO[C@H]2Cn3cc(C(=O)NCc4ccc(F)cc4F)c(=O)c(O)c3C(=O)N12 [Dolutegravir, dolutegravir]
- AUC exposure multiple of human (50 mg once daily) with no increases in drug-related neoplasms [1]: 17 times
- AUCtau, Mean (CV %) [2]: 53.6 (27%) mcg/h/mL
- Cmax, Mean (CV %) [2]: 3.67 (20%) mcg/mL
- Ctrough, Mean (CV %) [2]: 1.11 (46%) mcg/mL
- pIC50 [3]: 5.67
- Induction of CYP2B6 (CYP2B6): did not induce
- pIC50 [4]: < 4.30
- pIC50 [5]: < 4.30
- Effects on embryo-fetal development [6]: No adverse effects
- half-life ([7]; human): ~14 h
- Major route of elimination [7]: Metabolism
- Metabolic pathways [7]: UGT1A1; also recorded: CYP3A (minor)
- Tmax, median [7]: 2.5 h
- Kp at 8 h [8]: ≤ 1.3
- pIC50 (UGT2B7): < 4.30
- Induction of CYP3A4 (CYP3A4): did not induce
- Effect on plasma concentrations of tenofovir or para-amino hippurate, substrates of OAT1 and OAT3 (OAT1 and OAT3): did not alter
- Substrate of P-gp (P-gp): substrate
- pIC50 (CYP2C19): < 4.30
- Effect on Concentration of dolutegravir ([9]; concomitant Carbamazepine): ↓Dolutegravir
- Effect on Concentration of dolutegravir ([9]; concomitant Oxcarbazepine, Phenytoin, Phenobarbital, trial or predicted interaction): ↓Dolutegravir
- Effect on Concentration of dolutegravir ([9]; concomitant Rifampin): ↓Dolutegravir
- Effect on Concentration of dolutegravir ([9]; concomitant St. John's wort (Hypericum perforatum), trial or predicted interaction): ↓Dolutegravir
- Effect on Concentration of dolutegravir ([9]; concomitant medications containing polyvalent cations (antacids, laxatives, sucralfate, buffered medications)): ↓Dolutegravir
- Effect on Concentration of dolutegravir ([9]; concomitant oral calcium and iron supplements, including multivitamins): ↓Dolutegravir
- pIC50 (CYP2C8): < 4.30
- pIC50 (CYP3A): < 4.30
- pIC50 (MRP4): < 4.30
- pIC50 (BCRP [10]): < 4.30
- Hypersensitivity reactions, % of subjects [11]: < 1%
- pIC50 (OATP1B3): < 4.30
- pIC50 (UGT1A1): < 4.30
- Substrate of BCRP (BCRP [12]): substrate
- pIC50 (OAT3): 5.71
- Maximum mean QTc change (QTcF) ([13]; dolutegravir 250-mg suspension single dose, baseline and placebo adjusted): 2.4 ms
- QTc interval prolongation ([13]; over 24 hours postdose): did not prolong
- Genotoxicity, bacterial reverse mutation assay [14]: not genotoxic
